Assay [1] concerns κ opioid receptor. The conditions noted are these: literature report; cited from earlier work.
Assay [2] concerns Experimental Autoimmune Encephalomyelitis. The assay can be described thus: Experimental Autoimmune Encephalomyelitis (EAE) induced by MOG35-55, clinical signs scored 0 to 5. The class given is in vivo, female C57BL/6 mice.

Regarding EFSPENCQGESQPC [Crotalphine], the antinociception entry in assay [1] is “induces antinociception mediated by κ opioid receptor activation”. Further, the “animals that reached clinical score 2” value in assay [2] (single dose of 50 μg/kg on the 5th day after immunization, 100% of saline controls reached a score between 3 and 5) is reported as 43%. Further, the “severity of clinical signs” value in assay [2] (single dose of 50 μg/kg on the 5th day after immunization, vs saline control, n=8, p<0.05) is on record as “significantly decreased the severity of clinical signs”. Also, the “motor impairment in animal model of multiple sclerosis” value in assay [2] (summary statement) is given as “partially reverse the motor impairment”.

Source of the values: patent publication US20200038474A1, “COMPOSITION, USE AND METHOD FOR TREATING NEURODEGENERATIVE DISEASES” (FUNDAÇÃO BUTANTAN, priority 2016, published 2020).
